Measured values: paper PMC5190008, “BO-1055, a novel DNA cross-linking agent with remarkable low myelotoxicity shows potent activity in sarcoma models” (Oncotarget, 2016)

Assays:
A673 cells = test: Annexin V-APC/7-AAD apoptosis flow cytometry; type: cell-based, human; conditions: A673, 48 h, 1μM
From the text: In order to quantify the apoptosis ratio in A673 cells treated with BO-1055 we performed Annexin V-APC/7-AAD staining assays. Early apoptosis was defined as the presence of Annexin V-positive and 7-AAD-negative cells. Late apoptosis was defined as Annexin V-positive and 7-AAD-positive cells. Total percent apoptosis was defined as the sum of early and late apoptotic cells as a percentage of the total cell number. BO-1055 induces apoptosis in the A673 cell line in a time-concentration dependent manner (Figure 3B). Around 50 % of treated cells entered apoptosis after 48 h at concentrations of 1μM.
Cell viability and apoptosis were determined using 7-AAD (BD Pharmingen, San Diego, CA) and Annexin V-APC (BD Pharmingen, San Diego, CA) staining according to the instructions provided by the manufacturer and as previously published. Cell cycle fractions were determined by propidium iodide nuclear staining. Briefly, cells were harvested, washed in PBS, fixed with 70% ethanol, and incubated with propidium iodide/RNase buffer (BD Biosciences, San Diego, CA) for 15 minutes at room temperature. Data was collected on BD LSR Fortessa fluorescence-activated cell analyzer using BD FACS Diva software and analyzed using FlowJo version 9.6 software (Tree Star, Inc. Ashland, OR). Cell cycle analysis was done by applying the Dean/Jett/Fox cell cycle model using FlowJo software.

[1] = parameters: method as in PMID 23353940; conditions: rats, HPLC-PDA ref 7; cited from earlier work
[2] = tested on: human CD34+ hematopoietic stem cells isolated from cord blood; test: Colony forming unit (CFU) assay; type: cell-based; conditions: concentration < 5μM
Method: We performed the colony forming unit (CFU) assays using human CD34+ hematopoietic stem cells isolated from cord blood to elucidate hematologic toxicity. We noted no effect on BFU-E, GM and mixed colonies at a concentration < 5μM of BO-1055 on CFU assay (Figure 2C).
Colony assays were performed in triplicate in 24 well plates using 1.2% methylcellulose (Dow Chemical, Waterloo, NY), 30% FCS, 57.2 μM β-mercaptoethanol, 2 mM glutamine, 0.5 mM hemin (Sigma, USA), 20 ng/mL interleukin 3 (IL-3), granulocyte colony stimulating factor (G-CSF), c-KIT ligand (KL) and 6 U/mL erythropoietin (Epo). IL-3 and KL and Epo were obtained from R and D Systems (Minneapolis, USA) and G-CSF was from Amgen (Thousand Oaks, CA). Colonies were scored 14 days after plating as per the protocol described earlier.

Ewing sarcoma cell lines = test: Alamar Blue cell proliferation assay; type: cell-based, human
Method: (§1) AlamarBlue® assay (Invitrogen, Carlsbad, CA, USA) was performed to evaluate anti-proliferative activity of the drugs in cell lines and primary cells. Cells were plated in 96-well plates ([…] in 200 μL of medium). After 12 h, one of the previously mentioned drugs was added to each well at the specified concentration and incubated for 72 h. At the end of the incubation period, 20 μL of stock solution (0.312 mg/mL) of the Alamar Blue was added to each well. The absorbance was measured using the Synergy H1 hybrid multi-mode microplate reader (BioTek, USA). The drug effect was quantified as the percentage of control absorbance at 540 nm and 585 nm. Optical density was determined for 3 replicates per treatment condition and cell proliferation in drug-treated cells was normalized to their respective controls. All experiments were performed in triplicate.
(§2) Data are presented as mean±S.E.M. of at least three independent experiments done in triplicate. […] Combination index (CI) values, as calculated by CompuSyn software (Chou and Martin, 2007), were used to evaluate the interaction between BO-1055 and a second drug (Topotecan, SN38, Doxorubicin or PU-H71). The Chou-Talalay method was used to quantify the synergism (CI < 1), additive effect (CI = 1) and antagonism (CI > 1) of various drug combinations.

[3] = tested on: rhabdomyosarcoma cell lines; test: Alamar Blue cell proliferation assay; type: cell-based, human
Method: as §1, §2

cord blood CD34+ cells = test: Comet assay; type: cell-based, human; conditions: 3h
Method: We used comet assay, which includes single cell gel electrophoresis to assess DNA breaks when exposed to radiation or DNA damaging agents. […] Olive moment (micrometers), a product of tail DNA% and the distance between the centroids of head and tail, is an accurate parameter of DNA damage. […] Gamma-H2AX (γH2AX) phosphorylation is the initial step in DNA damage response following double stranded breaks and is responsible for recruiting DNA repair proteins.
Comet assay was performed according to the protocol described earlier. Cells were treated with BO-1055 at 2μM concentration for 3h, or immediately after exposure to 8Gy radiation after which they were isolated and mixed with 1% low melting point agarose in a tube. The cells in agarose were transferred to slides coated with normal melting point agarose. The agarose-immobilized cells were lysed in alkaline solution and the agarose trapped DNA was electrophoresed. DNA was stained with ethidium bromide and image acquisition was done immediately. DNA damage quantification was performed using OpenComet v1.3, an open-source software plugin in Image J 1.47v software (NIH, USA) for automated analysis. Olive moment, which is the product of tail DNA% and the distance between the intensity-weighted centroids of head and tail was taken from the output for analysis.

CN(C)CCNC(=O)c1cccc(NC(=O)Nc2ccc(N(CCCl)CCCl)cc2)c1 [BO-1055]
treated cells entering apoptosis (A673 cells): Around 50%
elimination [1]: slow elimination
tissue distribution [1]: rapid distribution to all organs except brain
effect on BFU-E, GM and mixed colonies [2]: no effect
IC50 (Ewing sarcoma cell lines): submicromolar
IC50 [3]: submicromolar
olive moment relative to radiation (XRT, 8Gy) (cord blood CD34+ cells): relatively less
